# Measured values taken from PMC7549094 (Journal of Medicinal Chemistry, 2020).
# Experiments:
# [1] = microsomal extraction ratio, 1 h incubation in microsomes
# [2] = target: hr 5-HT2A ag (Homo sapiens, UniProt P28223); assay: receptor profile (Table S4); assay type: biochemical
# [3] = in vivo; conditions: male, dog, plasma
# Procedure: In Vivo PK Studies in Mice.
# The solution was filtered using a 0.45 m syringe filter before dosing. Two male Balb/c mice were administered 1 intravenously via the lateral tail
# vein at 5 mg/kg with a dose volume of 2.0 mL/kg. 1 was also formulated in a suspension of 0.5%
# methylcellulose with 0.5% Tween 80 (0.5% MC/0.5% Tw80) in water at 2.5 mg/mL. A group of mice
# (n=3) were administered 1 orally via gavage at 20 mg/kg with a dose volume of 8.0 mL/kg.
# The mouse blood samples were centrifuged to separate plasma and the plasma samples were frozen at -
# In Vivo PK Studies in Rats.
# Two male Wistar rats were administered
# 1 intravenously via the lateral tail vein at 3 mg/kg with a dose volume of 1.0 mL/kg. 1 was also formulated
# in a suspension of 0.5% methylcellulose with 0.5% Tween 80 (0.5% MC/0.5% Tw80) in water at 2.0
# mg/mL. The second group of rats (n=3) were administered 1 orally via gavage at 10 mg/kg in suspension
# with a dose volume of 5.0 mL/kg. Six blood samples of 100 μL each were collected serially from each
# animal via the saphenous vein up to 24 hours after dosing. The rat blood samples were centrifuged to
# separate plasma and the plasma samples were frozen at -20°C until analysis.
# In Vivo PK Studies in Dogs.
# The solution was filtered using a 0.45 m syringe filter before dosing. Three male Beagle dogs were administered 1 intravenously via saphenous
# vein at 0.3 mg/kg with a dose volume of 0.1 mL/kg. 1 was also formulated in a suspension of 0.5%
# methylcellulose with 0.5% Tween 80 (0.5%MC/0.5% Tween 80) in water at 1.0 mg/mL. The second
# group of male dogs (n=2) were administered 1- orally via gavage at 1.0 mg/kg with a dose volume of 1.0
# mL/kg. Seven blood samples of 250 µL each were collected serially from each animal via the jugular vein
# The dog blood samples were centrifuged to separate plasma and the plasma
# samples were frozen at -20 °C until analysis.
# [4] = target: T1, hr M2 ag (Homo sapiens, UniProt P08172); assay: receptor profile (Table S4); assay type: biochemical
# T1 sequence (P08172 1-466): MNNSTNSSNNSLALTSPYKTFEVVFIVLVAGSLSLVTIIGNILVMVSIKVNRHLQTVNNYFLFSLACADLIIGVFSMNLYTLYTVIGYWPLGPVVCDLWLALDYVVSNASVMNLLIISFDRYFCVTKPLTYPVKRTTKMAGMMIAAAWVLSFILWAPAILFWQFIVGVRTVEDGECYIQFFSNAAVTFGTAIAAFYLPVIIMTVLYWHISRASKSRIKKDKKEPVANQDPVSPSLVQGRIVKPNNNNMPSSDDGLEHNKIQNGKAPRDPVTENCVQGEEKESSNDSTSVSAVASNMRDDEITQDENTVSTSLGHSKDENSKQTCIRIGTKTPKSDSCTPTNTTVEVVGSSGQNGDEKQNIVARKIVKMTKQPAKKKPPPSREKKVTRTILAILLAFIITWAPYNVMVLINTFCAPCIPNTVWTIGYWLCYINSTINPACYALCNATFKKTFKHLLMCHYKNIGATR
# [5] = target: T2, hr Ad3 (Homo sapiens, UniProt P0DMS8); assay: receptor profile (Table S4); assay type: binding
# T2 sequence (P0DMS8 1-318): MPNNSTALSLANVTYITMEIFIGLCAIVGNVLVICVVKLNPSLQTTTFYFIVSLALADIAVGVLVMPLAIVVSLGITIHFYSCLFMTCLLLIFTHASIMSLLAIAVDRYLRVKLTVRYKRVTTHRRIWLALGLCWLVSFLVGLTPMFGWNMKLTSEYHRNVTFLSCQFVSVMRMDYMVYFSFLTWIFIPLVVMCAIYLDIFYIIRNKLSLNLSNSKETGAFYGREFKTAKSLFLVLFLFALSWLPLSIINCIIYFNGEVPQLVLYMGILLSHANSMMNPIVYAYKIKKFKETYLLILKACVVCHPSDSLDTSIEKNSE
# [6] = target: T3, hr Al1A ag (Homo sapiens, UniProt P35348); assay: receptor profile (Table S4); assay type: biochemical
# T3 sequence (P35348 1-466): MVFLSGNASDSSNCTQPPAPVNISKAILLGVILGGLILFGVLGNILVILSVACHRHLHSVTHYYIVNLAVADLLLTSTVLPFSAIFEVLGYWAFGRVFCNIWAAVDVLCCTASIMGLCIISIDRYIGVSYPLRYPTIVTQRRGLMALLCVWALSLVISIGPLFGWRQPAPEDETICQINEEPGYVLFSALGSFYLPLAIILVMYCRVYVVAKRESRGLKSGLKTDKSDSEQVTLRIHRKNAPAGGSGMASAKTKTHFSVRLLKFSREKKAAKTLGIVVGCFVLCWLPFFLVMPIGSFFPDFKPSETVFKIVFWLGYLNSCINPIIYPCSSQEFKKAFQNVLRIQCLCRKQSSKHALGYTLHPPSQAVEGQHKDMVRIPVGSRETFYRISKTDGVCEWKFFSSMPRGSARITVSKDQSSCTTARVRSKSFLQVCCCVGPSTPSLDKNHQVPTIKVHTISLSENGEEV
# [7] = target: T4, hr COX-2 (Homo sapiens, UniProt P35354); assay: receptor profile (Table S4); assay type: biochemical
# T4 sequence (P35354 18-604): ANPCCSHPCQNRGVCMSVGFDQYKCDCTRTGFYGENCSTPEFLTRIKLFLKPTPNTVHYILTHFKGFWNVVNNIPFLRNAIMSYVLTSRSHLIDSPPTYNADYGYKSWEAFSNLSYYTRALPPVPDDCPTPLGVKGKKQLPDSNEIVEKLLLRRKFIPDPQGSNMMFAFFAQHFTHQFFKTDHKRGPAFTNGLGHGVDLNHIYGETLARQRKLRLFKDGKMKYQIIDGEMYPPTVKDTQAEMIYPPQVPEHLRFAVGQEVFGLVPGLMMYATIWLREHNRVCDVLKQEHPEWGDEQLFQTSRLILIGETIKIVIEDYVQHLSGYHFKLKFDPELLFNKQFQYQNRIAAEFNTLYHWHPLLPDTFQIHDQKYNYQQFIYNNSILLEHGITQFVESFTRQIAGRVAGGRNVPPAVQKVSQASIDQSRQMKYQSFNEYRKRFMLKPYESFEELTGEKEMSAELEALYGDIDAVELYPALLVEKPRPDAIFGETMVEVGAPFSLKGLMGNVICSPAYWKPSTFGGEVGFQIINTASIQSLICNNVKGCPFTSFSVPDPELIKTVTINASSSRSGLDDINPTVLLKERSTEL
# [8] = target: T5, hr Al2A antag (Homo sapiens, UniProt P08913); assay: receptor profile (Table S4); assay type: biochemical
# T5 sequence (P08913 1-465): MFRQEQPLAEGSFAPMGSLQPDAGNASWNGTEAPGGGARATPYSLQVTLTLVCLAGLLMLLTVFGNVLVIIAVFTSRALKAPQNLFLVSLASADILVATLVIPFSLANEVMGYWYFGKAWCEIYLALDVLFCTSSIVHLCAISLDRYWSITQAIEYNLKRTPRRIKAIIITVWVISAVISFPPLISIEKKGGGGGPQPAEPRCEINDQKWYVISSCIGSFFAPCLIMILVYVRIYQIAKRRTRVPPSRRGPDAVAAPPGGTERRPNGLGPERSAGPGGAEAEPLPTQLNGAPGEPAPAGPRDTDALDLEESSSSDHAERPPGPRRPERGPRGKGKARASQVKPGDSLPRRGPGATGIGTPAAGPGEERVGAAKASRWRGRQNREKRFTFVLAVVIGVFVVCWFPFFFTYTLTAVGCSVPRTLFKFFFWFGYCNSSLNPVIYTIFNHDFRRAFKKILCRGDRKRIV
# [9] = system: intramacrophage L. donovani amastigotes; assay: L. donovani amastigote proliferation within primary mouse macrophages; assay type: cell-based; conditions: Leishmania donovani, Macrophage
# Sequence of hr 5-HT2A ag (P28223 whole entry): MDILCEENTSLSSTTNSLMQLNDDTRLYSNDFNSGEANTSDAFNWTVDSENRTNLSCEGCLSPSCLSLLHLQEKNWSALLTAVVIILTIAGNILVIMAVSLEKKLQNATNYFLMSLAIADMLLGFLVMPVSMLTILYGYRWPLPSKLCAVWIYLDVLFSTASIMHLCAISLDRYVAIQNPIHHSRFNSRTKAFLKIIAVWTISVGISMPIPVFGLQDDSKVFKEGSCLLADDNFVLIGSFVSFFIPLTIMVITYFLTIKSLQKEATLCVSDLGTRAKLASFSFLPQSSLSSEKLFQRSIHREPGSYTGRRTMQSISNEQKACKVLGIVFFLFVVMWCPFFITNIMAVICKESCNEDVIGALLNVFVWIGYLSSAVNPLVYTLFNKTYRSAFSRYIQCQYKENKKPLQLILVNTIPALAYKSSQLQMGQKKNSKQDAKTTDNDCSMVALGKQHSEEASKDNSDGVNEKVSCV
structure (smiles),measurement,setting,value
"Cc1nc(C)c(C(=O)Nc2ccc(F)c(-c3nc4ncc(-c5ncccc5C)cn4n3)c2)o1 [compound 1, N-(4-Fluoro-3-(6-(3-methylpyridin-2-yl)-[1,2,4]triazolo[1,5-a]pyrimidin-2-yl)phenyl)-2,4-dimethyloxazole-5-carboxamide]",ER rat,[1],< 0.18
same,EC50/IC50,[2]; hr 5-HT2A ag,> 30 µM
same,inhibition at 10 µM,[2]; read-out: % inh/act @ 10 µM,-7%
same,inhibition at 30 µM,[2]; read-out: % inh/act @ 30 µM,-10%
same,bioavailability,"[3]; Beagle, po, 1 mg/kg",44%
same,MRT,"[3]; beagle, iv, 0.3 mg/kg",3.3 h
same,Vd,"[3]; beagle, iv, 0.3 mg/kg",2.1 L/kg
same,clearance,"[3]; beagle, iv, 0.3 mg/kg",11.6 mL/min/kg
same,half-life,"[3]; beagle, iv, 0.3 mg/kg",3.8 h
same,EC50/IC50,[4]; hr M2 ag,> 30 µM
same,inhibition at 10 µM,[4]; read-out: % inh/act @ 10 µM,0%
same,inhibition at 30 µM,[4]; read-out: % inh/act @ 30 µM,1%
same,EC50/IC50,[5]; hr Ad3,> 30 µM
same,inhibition at 10 µM,[5]; read-out: % inh/act @ 10 µM,8%
same,inhibition at 30 µM,[5]; read-out: % inh/act @ 30 µM,37%
same,EC50/IC50,[6]; hr Al1A ag,> 30 µM
same,inhibition at 10 µM,[6]; read-out: % inh/act @ 10 µM,0%
same,inhibition at 30 µM,[6]; read-out: % inh/act @ 30 µM,1%
same,EC50/IC50,[7]; hr COX-2,> 30 µM
same,inhibition at 10 µM,[7]; read-out: % inh/act @ 10 µM,9%
same,inhibition at 30 µM,[7]; read-out: % inh/act @ 30 µM,13%
same,EC50/IC50,[8]; hr Al2A antag,> 30 µM
same,inhibition at 10 µM,[8]; read-out: % inh/act @ 10 µM,20%
same,inhibition at 30 µM,[8]; read-out: % inh/act @ 30 µM,22%
same,EC50,[9],0.04 µM
